Eleven molecules from patent publication US20250009697A1, “COMPOSITION FOR INCREASING AMOUNT OF FOOD INGESTED AND/OR IMPROVING ANOREXIA, AND COMPOSITION FOR ACTIVATING TRANSIENT RECEPTOR POTENTIAL ANKYRIN 1” (HOUSE FOODS GROUP INC., priority 2021, published 2025) can be followed below.

Experiment [1] addresses T1, Human TRPA1 (hTRPA1) (Homo sapiens, UniProt O75762).
T1 construct: expressed in transfected cells
Description: TRPA1 Activation Test 2: intracellular Ca2+ imaging assay 2-1 to 2-3, hTRPA1 stably expressing cell line. The format is cell-based. Particulars: for TRPA1 activation rates: Table 10; for Concentration dependence of TRPA1 activity (in words): additional experiments; for TRPA1 activating action (in words): hTRPA1 stably expressing cell line; for TRPA1 activation rate, With antagonist / TRPA1 activation rate, Without antagonist: Table 11. Here is the method: (§1) DNAs encoding genes described in the following Table 2 were inserted into pcDNA 5/TO vector (Invitrogen) to prepare various expression vectors.
(§2) These expression vectors were transfected into T-REx™_293 cells (Invitrogen) by a conventional method using Lipofectamine LTX (Invitrogen). Then, various transfectants were cultured and cloned by a conventional method using Dulbecco's Modified Eagle Medium (DMEM, Nacalai Tesque Inc.), containing 10% fetal bovine serum (FBS, Cytiva), […] of hygromycin B, and 5 μg/mL of blasticidin S, as a drug selection medium to obtain a hTRPA1 stably expressing cell line, a hTRPV1 stably expressing cell line, and a hTRPM8 stably expressing cell line.
(§3) A hTRPA1 stably expressing cell line in which expression of hTRPA1 had been induced in advance by a conventional method was prepared in a 96 well clear bottom plate, and the hTRPA1 activating action of rhein (produced by Tokyo Chemical Industry Co., Ltd.) was tested. Specifically, after each well was washed with PBS, 50 μL of an assay buffer (Hanks' balanced salt solution containing no calcium ion or magnesium ion that contained 1 mM of CaCl2 dihydrate, 20 mM of HEPES, and 0.1% BSA) containing calcium fluorescent indicator Calbryte™ 520 AM (produced by AAT Bioquest) in a final concentration of 4 μM was added, followed by incubating at 33° C. for 45 minutes. After washing with the assay buffer, 100 μL of the assay buffer was added to each well. This plate was set to FlexStation 3 (Molecular Devices, LLC), and a fluorescence intensity (excitation wavelength 490 nm, fluorescence wavelength 525 nm) at 31° C. was measured every two seconds, and 30 seconds after the start of the measurement, 100 μL of an assay buffer containing a test sample (allyl isothiocyanate (AITC) of positive control or rhein) which was prepared to have a certain final concentration or DMSO was added. Then, a well in which an assay buffer containing ionomycin (having a final concentration of 10 μM after the addition) instead of the test samples was added was also prepared as a reference for fluorescence intensity.
(§4) The measurement was continued from the start of the measurement up to 120 seconds, and the TRPA1 activation ability of the test samples was calculated in accordance with the following formula.
Activation rate (%)=(Fmax[s]−F0)/(Fmax[i]−F0)×100 • Fmax[s]: The maximum value of the fluorescence intensity when the test sample or positive control was added • F0: The average value of the fluorescence intensity for 20 seconds after the start of the measurement (base line) • Fmax[i]: The maximum value of the fluorescence intensity when ionomycin was added
The TRPA1 activation ability of each test sample was measured in the same manner as in the above (2) except the test was conducted with A-967079 (1 μM), which is a TRPA1-specific antagonist, or without A-967079. In addition, intracellular Ca^2+ imaging assay was conducted in the same manner as in the above (2) except that a hTRPV1 stably expressing cell line, a hTRPM8 stably expressing cell line, or a Mock cell was used instead of the hTRPA1 stably expressing cell line. Note that capsaicin was used as positive control for the hTRPV1 stably expressing cell line, and icilin was used as positive control for the hTRPM8 stably expressing cell line.
A TRPA1 activation ability was measured in the same manner as in the above (2) by using, as a test sample, rhein or compounds described in the following Table 10, which had anthraquinone structures similar to rhein, at a concentration of 200 μM of the test sample.

The nature of experiment [2]: Anorexia Improving Test 3: cumulative amounts of food ingested of mice, rhein with or without A-967079. Particulars: oral, rhein 100 μmol/kg body weight, A-967079 10 μmol/kg body weight. The format is in vivo. The procedure:
Male ICR mice were housed in individual cages in which ALPHA-dri (Shepherd Specialty Papers) was laid, and were acclimatized and raised for at least one week or more while a powder feed (CE-2, CLEA Japan, Inc.) was given to the mice by using a powder feeder for mice (SN-950, Shinano Manufacturing Co., Ltd.). Then, for several days before the experiment, handling and oral administration training using a feeding needle (FG4202, Fuchigami Kikai Co., Ltd.) were conducted every day. To 9 week-old mice under ad libitum feeding conditions, a carrier solution (containing 2% of dimethyl sulfoxide and 98% of a 0.5% methyl cellulose solution in volume ratio) or a rhein solution (obtained by dissolving 8.53 mg of rhein in 1 mL of the carrier solution) was orally administered from 9:20 a.m. (10 mL/kg body weight). The dosage of rhein was 300 μmol/kg body weight in terms of molar concentration. Then, a feeder the mass of which had been measured in advance was set in the cage at 9:30 a.m. The masses of the feeder and the feed spilled in the cage 0.5, 1, 2, and 3 hours after the start of the feeding experiment were measured, and the ingested mass (g) at each time was measured (n=6). The ingested mass (g) of each mouse was measured in the same manner as in anorexia improving test 2 (the above item 5) except that 10 mL/kg body weight of a carrier solution, a rhein solution (100 μmol/kg body weight), an A-967079 solution (10 μmol/kg body weight), or a mixed solution of A-967079 and rhein (in 10 μmol/kg body weight and 100 μmol/kg body weight, respectively) was orally administered to the mouse. Results obtained by calculating the cumulative amounts of food ingested and conducting a multiple comparison (multiple t-test) by the Dunn-Bonferroni method are shown in Table 12.

Experiment [3] addresses T1, Human TRPA1 (hTRPA1). Description: TRPA1 Activation Test 1: intracellular Ca2+ imaging assay 1-1 to 1-3, hTRPA1 stably expressing cell line. It is filed as cell-based. The settings on record: for TRPA1 activating action with TRPA1-specific antagonist (in words) / TRPA1 activation rate, With antagonist: A-967079 1 μM; for TRPA1 activating action (in words): hTRPA1 stably expressing cell line; for TRPA1 activation rate, With antagonist / TRPA1 activation rate, Without antagonist: Table 6. The procedure: as §1, §2
as §3, with “bottom plate (black),” for “bottom plate,”, “and a” for “and the”, “of the purified oxylipin or the R2 fraction (both were assumed to contain a compound having a molecular weight of 294) obtained in the above item 1” for “of rhein (produced by Tokyo Chemical Industry Co., Ltd.)”, “calcium ions” for “calcium ion”, “magnesium ions” for “magnesium ion”, “sample” for “sample (allyl isothiocyanate (AITC) of positive control or rhein)”
as §4
Activation rate (%)=(Fmax[s]−F0)/(Fmax[i]−F0)×100 • Fmax[s]: The maximum value of the fluorescence intensity when the test sample or the positive control was added • F0: The average value of the fluorescence intensity for 20 seconds after the start of the measurement (base line) • Fmax[i]: The maximum value of the fluorescence intensity when ionomycin was added
The TRPA1 activation ability was measured in the same manner as in the above (2) except that the R2 fraction or allyl isothiocyanate (AITC) was used as a test sample and the test was conducted with A-967079 (1 μM), which is a TRPA1-specific antagonist, or without A-967079. In addition, regarding the R2 fraction, the hTRPV1 stably expressing cell line or the hTRPM8 stably expressing cell line was used instead of the hTRPA1 stably expressing cell line to conduct the same test. Note that as positive controls, capsaicin was used for the hTRPV1 stably expressing cell line and icilin was used for the hTRPM8 stably expressing cell line.
The TRPA1 activation ability was measured in the same manner as in the above (2) except that each isolated compound or allyl isothiocyanate (AITC) was used as a test sample and the test was conducted with A-967079 (1 μM), which was a TRPA1-specific antagonist, or without A-967079.

T1 sequence (O75762 whole entry): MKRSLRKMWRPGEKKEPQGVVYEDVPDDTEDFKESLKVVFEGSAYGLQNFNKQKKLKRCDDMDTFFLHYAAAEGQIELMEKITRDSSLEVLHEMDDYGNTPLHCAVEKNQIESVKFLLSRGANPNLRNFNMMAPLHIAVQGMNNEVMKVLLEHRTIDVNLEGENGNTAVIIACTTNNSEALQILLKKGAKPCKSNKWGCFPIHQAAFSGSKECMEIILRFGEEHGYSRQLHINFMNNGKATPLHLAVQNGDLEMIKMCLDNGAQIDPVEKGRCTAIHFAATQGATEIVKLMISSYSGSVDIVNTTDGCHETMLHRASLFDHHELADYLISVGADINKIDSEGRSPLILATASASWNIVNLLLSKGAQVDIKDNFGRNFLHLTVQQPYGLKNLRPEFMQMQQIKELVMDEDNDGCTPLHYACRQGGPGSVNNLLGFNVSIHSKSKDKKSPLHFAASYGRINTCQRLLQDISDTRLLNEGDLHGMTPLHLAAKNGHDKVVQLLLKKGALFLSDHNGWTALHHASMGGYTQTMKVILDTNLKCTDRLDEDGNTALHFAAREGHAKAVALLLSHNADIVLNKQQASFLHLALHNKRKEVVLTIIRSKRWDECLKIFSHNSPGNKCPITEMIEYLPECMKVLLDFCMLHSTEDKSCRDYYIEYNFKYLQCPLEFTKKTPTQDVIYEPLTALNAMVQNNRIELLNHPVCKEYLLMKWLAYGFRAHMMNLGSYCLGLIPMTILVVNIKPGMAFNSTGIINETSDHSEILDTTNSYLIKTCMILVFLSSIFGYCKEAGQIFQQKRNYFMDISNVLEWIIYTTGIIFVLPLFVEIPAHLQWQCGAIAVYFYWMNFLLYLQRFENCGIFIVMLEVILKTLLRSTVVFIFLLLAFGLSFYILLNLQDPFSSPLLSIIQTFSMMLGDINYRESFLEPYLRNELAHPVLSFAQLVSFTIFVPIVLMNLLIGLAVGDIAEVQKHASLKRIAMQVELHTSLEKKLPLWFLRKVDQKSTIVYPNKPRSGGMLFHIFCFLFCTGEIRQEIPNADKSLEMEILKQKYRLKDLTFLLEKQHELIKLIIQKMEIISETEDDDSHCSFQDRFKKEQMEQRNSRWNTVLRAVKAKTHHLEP

`O=C1c2cccc(O)c2C(=O)c2cccc(O)c21` [Anthrarufin, reference compound] came in with a TRPA1 activation rates in experiment [1] (test sample 200 μM) of 0.587 ± 0.0172%.

In experiment [1] (test sample 200 μM), `Cc1cc(O)c2c(c1)C(=O)c1cccc(O)c1C2=O` [Chrysophanol, reference compound] had a TRPA1 activation rates of 3.27 ± 0.439%.

With `CCC(=N\O)/C(C)=C/c1ccc(F)cc1` [Compound A-967079, reference compound], the “Cumulative amounts of food ingested of mice” value was 0.026 ± 0.0093 g in experiment [2] (0.5 hour after the administration), 0.042 ± 0.015 g in experiment [2] (1 hour after the administration), 0.088 ± 0.027 g in experiment [2] (2 hours after the administration) and 0.20 ± 0.066 g in experiment [2] (3 hours after the administration).

Consider `CC/C=C/CC(O)/C=C/C=C\CCCCCCCC(=O)O` (stereo not drawn) [Compound R1-2], for which, in experiment [3], the “TRPA1 activating action with TRPA1-specific antagonist (in words)” value was “inhibited by the TRPA1-specific antagonist” and the “TRPA1 activating action (in words)” value was “exhibited the TRPA1 activating action”. Further, in experiment [3] (test sample 200 μM), the “TRPA1 activation rate, With antagonist” value was 1.75 ± 0.443% and the “TRPA1 activation rate, Without antagonist” value is 32.0 ± 1.40%. In addition, in experiment [3] (test sample 500 μM), the “TRPA1 activation rate, With antagonist” value is 8.24 ± 1.13% and the “TRPA1 activation rate, Without antagonist” value is 95.9 ± 1.79%.

For `CCC(O)/C=C/C=C\C/C=C\CCCCCCCC(=O)O` (stereo not drawn) [Compound R2-2], in experiment [3], the “TRPA1 activating action with TRPA1-specific antagonist (in words)” value is on record as “inhibited by the TRPA1-specific antagonist” and the “TRPA1 activating action (in words)” value was “exhibited the TRPA1 activating action”. Also, in experiment [3] (test sample 200 μM), the “TRPA1 activation rate, With antagonist” value is on record as 0.71 ± 0.0743% and the “TRPA1 activation rate, Without antagonist” value is 21.6 ± 5.63%. In addition, in experiment [3] (test sample 500 μM), the “TRPA1 activation rate, With antagonist” value was determined as 1.96 ± 0.548% and the “TRPA1 activation rate, Without antagonist” value is on record as 77.5 ± 0.988%.

In the case of `CC/C=C\C/C=C\C=C\C(O)CCCCCCCC(=O)O` (stereo not drawn) [Compound R3], in experiment [3], the “TRPA1 activating action with TRPA1-specific antagonist (in words)” value is listed as “inhibited by the TRPA1-specific antagonist” and the “TRPA1 activating action (in words)” value is given as “exhibited the TRPA1 activating action”. For the same molecule, in experiment [3] (test sample 200 μM), the “TRPA1 activation rate, With antagonist” value stood at 0.58 ± 0.0564% and the “TRPA1 activation rate, Without antagonist” value was determined as 16.3 ± 0.812%. In experiment [3] (test sample 500 μM), the “TRPA1 activation rate, With antagonist” value amounted to 0.731 ± 0.237% and the “TRPA1 activation rate, Without antagonist” value is listed as 93.6 ± 1.92%.

`O=C1c2cccc(O)c2C(=O)c2c(O)cccc21` [Dantron, reference compound] displayed a TRPA1 activation rates in experiment [1] (test sample 200 μM) of 4.72 ± 0.762%.

In the case of `Cc1cc(O)c2c(c1)C(=O)c1cc(O)cc(O)c1C2=O` [Emodin, emodin], the “TRPA1 activating action with TRPA1-specific antagonist (in words)” value in experiment [1] (A-967079) is “inhibited by A-967079”. In addition, the “Concentration dependence of TRPA1 activity (in words)” value (“Concentration dependence” below) in experiment [1] is “exhibited TRPA1 activity in concentration dependent manner”. For the same molecule, the “TRPA1 activating action (in words)” value in experiment [1] is listed as “exhibited TRPA1 activating actions”. For the same molecule, the “TRPA1 activation rate, With antagonist” value amounted to 0.881 ± 0.134 % in experiment [1] (test sample 100 μM, A-967079); 2.96 ± 0.246 % in experiment [1] (test sample 200 μM, A-967079); 6.25 ± 1.70 % in experiment [1] (test sample 400 μM, A-967079). Moreover, the entries for the “TRPA1 activation rate, Without antagonist” value in experiment [1] (test sample 100 μM), in experiment [1] (test sample 200 μM) and in experiment [1] (test sample 400 μM) were 49.4 ± 1.41%, 64.8 ± 3.73% and 71.29 ± 1.08%, respectively. The TRPA1 activation rates in experiment [1] (test sample 200 μM) is reported as 43.1 ± 1.72%.

Regarding `O=C(O)c1cc(O)c2c(c1)[C@H]([C@H]1c3cc(C(=O)O)cc(O)c3C(=O)c3c(O[C@@H]4O[C@H](CO)[C@@H](O)[C@H](O)[C@H]4O)cccc31)c1cccc(O[C@@H]3O[C@H](CO)[C@@H](O)[C@H](O)[C@H]3O)c1C2=O` [Sennoside A, reference compound], in experiment [1] (test sample 200 μM), the TRPA1 activation rates is on record as 3.33 ± 0.705%.

For the molecule aloe-emodin, in experiment [1], the “Concentration dependence” value is listed as “exhibited TRPA1 activity in concentration dependent manner” and the “TRPA1 activating action (in words)” value was “exhibited TRPA1 activating actions”. The TRPA1 activation rates in experiment [1] (test sample 200 μM) was found to be 15.3 ± 0.743%.

Regarding physcion, in experiment [1], the “Concentration dependence” value is reported as “exhibited TRPA1 activity in concentration dependent manner” and the “TRPA1 activating action (in words)” value is listed as “exhibited TRPA1 activating actions”. Besides, the TRPA1 activation rates in experiment [1] (test sample 200 μM) is listed as 24.3 ± 0.760%.
